Earlier results, collected in patent US20040033957A1, “FAP-activated anti-tumor prodrugs” (Boehringer Ingelheim Pharma GmbH & Co. KG, priority 2002, published 2004).
Where a SMILES comes first, the peptide text is derived from it. The star is where a group is joined. AFC = O=c1cc(C(F)(F)F)c2ccc(N*)cc2o1

What was measured:
[1] = target: T1, FAPα dimers (Homo sapiens, UniProt Q12884); conditions: membrane overlay assay
T1 sequence (Q12884 1-760): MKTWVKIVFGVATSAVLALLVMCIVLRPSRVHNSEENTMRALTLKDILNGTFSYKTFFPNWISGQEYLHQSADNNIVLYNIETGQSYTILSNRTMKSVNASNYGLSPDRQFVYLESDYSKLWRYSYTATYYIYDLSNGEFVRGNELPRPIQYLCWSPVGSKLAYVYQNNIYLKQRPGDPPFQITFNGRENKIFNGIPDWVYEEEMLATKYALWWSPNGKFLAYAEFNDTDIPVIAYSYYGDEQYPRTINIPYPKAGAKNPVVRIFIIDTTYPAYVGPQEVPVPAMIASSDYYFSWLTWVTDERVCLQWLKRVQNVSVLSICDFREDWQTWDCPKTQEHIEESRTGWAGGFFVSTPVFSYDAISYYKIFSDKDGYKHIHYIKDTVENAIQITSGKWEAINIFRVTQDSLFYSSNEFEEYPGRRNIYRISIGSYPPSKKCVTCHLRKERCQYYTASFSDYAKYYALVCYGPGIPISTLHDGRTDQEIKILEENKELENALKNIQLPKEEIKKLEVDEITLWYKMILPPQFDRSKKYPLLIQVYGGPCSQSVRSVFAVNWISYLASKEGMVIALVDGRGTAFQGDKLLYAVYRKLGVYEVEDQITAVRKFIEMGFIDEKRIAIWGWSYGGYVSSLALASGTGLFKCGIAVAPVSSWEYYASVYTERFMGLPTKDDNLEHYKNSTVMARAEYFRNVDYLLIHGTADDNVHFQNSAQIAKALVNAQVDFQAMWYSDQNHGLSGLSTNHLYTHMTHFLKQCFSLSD

[2] = tested on: xenograft tumor; conditions: mouse xenograft tumor models
[3] = directly in the circulation, humans

Structure (SMILES)	cleavage by FAPα dimers [1]	efficacy as compared to doxorubicin [2]	fraction of the prodrug metabolized to free doxorubicin [3]	tolerability (humans)	myelosuppression (patients, correlated with AUC of released doxorubicin)
C[C@H](N)C(=O)N1CCC[C@H]1C(=O)Nc1ccc2c(C(F)(F)F)cc(=O)oc2c1 [Ala-Pro-7-amino-4-trifluoromethyl coumarin] (H-Ala-Pro-{AFC})	able to cleave				
NCCCC[C@H](N)C(=O)N1CCC[C@H]1C(=O)Nc1ccc2c(C(F)(F)F)cc(=O)oc2c1 [Lys-Pro-7-amino-4-trifluoromethyl coumarin] (H-Lys-Pro-{AFC})	able to cleave				
COc1cccc2c1C(=O)c1c(O)c3c(c(O)c1C2=O)C[C@@](O)(C(=O)CO)C[C@@H]3O[C@H]1C[C@H](NC(=O)[C@@H](N)CC(C)C)[C@H](O)[C@H](C)O1 [N-L-leucyl-doxorubicin]		improved efficacy	roughly half	comparably poor tolerability	Myelosuppression was seen
NCC(=O)N1CCC[C@H]1C(=O)Nc1ccc2c(C(F)(F)F)cc(=O)oc2c1 [Gly-Pro-7-amino-4-trifluoromethyl coumarin] (H-Gly-Pro-{AFC})	able to cleave				
